For one test, the target named is T1, PARP-1 (Homo sapiens, UniProt P09874).
T1 construct: purchased Enzo Life Sciences GmbH, Lörrach, Germany
Nature of the test: PARP-1 autoparsylation assay (HTRF). Format: biochemical. To be noted: His-tagged Parp-1, autoparsylation HTRF. The gist of the method:
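His-tagged enzyme auto-modifies itself using biotinylated NAD/NAD; product detected by TR-FRET between cryptate anti-His antibody and Xlent-streptavidin, as emission ratio.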

For another test, the target named is T2, TNKS1 (Homo sapiens, UniProt O95271).
T2 construct: GST-tagged Tnks-1 (1023-1327 aa, prepared in-house); made in house
Description: TNKS1 activity ELISA (autoparsylation assay). Type of test: biochemical. The note with it: GST-tagged Tnks-1 (1023-1327 aa). The gist of the method:
(§1)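 GST-tagged TNKS1 or TNKS2 captured on glutathione plates and allowed to auto-PARsylate with biotinylated NAD with or without compound. Biotin-ADP-ribosylated enzyme detected by streptavidin-HRP and luminescence; IC50 relative to inhibitor-free reaction.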
On the technique in general: ELISA stands for enzyme-linked immunosorbent assay.

For the next test, the target named is T3, TNKS2 (Homo sapiens, UniProt Q9H2K2).
T3 construct: GST-tagged Tnks-2 (873-1166 aa, prepared in-house); made in house
Nature of the test: TNKS2 activity ELISA (autoparsylation assay). The note with it: GST-tagged Tnks-2 (873-1166 aa); read-out: IC50 [M] TNKS2 ELISA. Format: biochemical. The essentials: as §1

For another test, the system named is Tankyrases. The note with it: read-out: EC50 [M] TNKS cellular assay; DLD1 cells, 24 hours, Axin2 increase.

SMILES strings stand for the structures.

T3 sequence (Q9H2K2 873-1166): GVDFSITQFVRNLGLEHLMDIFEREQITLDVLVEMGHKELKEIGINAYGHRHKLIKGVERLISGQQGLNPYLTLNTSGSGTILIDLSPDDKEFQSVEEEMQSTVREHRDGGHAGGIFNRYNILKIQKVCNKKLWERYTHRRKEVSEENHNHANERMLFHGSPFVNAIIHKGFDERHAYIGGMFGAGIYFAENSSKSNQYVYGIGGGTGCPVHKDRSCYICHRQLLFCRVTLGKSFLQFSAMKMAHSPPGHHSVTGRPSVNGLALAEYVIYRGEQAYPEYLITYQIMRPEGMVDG
T1 sequence (P09874 whole entry): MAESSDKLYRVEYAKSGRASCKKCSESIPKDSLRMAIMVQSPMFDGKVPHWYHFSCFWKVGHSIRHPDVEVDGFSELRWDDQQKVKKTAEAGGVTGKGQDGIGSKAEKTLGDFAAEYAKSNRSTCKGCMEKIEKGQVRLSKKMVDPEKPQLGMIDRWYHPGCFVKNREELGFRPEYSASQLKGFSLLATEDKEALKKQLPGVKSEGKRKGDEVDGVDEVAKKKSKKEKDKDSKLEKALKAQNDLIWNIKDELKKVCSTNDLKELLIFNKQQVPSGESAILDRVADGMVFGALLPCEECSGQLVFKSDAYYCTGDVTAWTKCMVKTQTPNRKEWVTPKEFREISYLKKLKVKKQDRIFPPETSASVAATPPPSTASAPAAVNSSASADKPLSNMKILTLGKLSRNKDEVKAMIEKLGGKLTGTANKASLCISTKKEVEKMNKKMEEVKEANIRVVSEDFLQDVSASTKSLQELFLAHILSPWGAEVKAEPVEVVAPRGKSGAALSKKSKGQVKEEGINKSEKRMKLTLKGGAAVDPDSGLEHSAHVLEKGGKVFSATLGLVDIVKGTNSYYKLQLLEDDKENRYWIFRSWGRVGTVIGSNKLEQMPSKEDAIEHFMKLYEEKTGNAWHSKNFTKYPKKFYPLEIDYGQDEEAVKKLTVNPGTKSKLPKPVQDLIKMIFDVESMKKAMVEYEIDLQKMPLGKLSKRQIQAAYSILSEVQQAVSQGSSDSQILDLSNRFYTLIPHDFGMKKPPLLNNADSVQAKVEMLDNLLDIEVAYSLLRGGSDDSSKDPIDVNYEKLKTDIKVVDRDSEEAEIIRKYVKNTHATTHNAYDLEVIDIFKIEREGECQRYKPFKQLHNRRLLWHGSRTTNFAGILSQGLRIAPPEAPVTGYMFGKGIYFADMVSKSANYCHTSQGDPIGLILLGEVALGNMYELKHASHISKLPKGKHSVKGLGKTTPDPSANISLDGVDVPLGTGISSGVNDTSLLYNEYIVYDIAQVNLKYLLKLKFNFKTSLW
T2 sequence (O95271 1023-1327): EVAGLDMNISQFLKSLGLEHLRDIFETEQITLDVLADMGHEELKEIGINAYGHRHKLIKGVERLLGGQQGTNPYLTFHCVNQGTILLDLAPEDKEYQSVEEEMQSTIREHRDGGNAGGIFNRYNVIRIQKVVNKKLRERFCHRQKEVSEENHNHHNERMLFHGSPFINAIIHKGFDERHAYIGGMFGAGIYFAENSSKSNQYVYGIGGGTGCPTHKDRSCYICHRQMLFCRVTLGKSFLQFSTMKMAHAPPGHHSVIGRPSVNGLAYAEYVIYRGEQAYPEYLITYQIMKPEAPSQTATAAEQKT

On to `Cn1ccc2c(=O)[nH]c(CCCC(=O)N3CCC(c4cnc(N)c(-c5ncccn5)c4)CC3)nc21` [Compound C183, 2-[4-(6-Amino-5-pyrimidin-2-yl-3′,4′,5′,6′-tetrahydro-2′H-[3,4′]bipyridinyl-1′-yl)-4-oxo-butyl]-7-methyl-3,7-dihydro-pyrrolo[2,3-d]pyrimidin-4-one], for which the IC50 (usually the concentration that gives 50% inhibition) at PARP-1 came to 1600 nM; against TNKS1 it was 0.54 nM; on TNKS2 it was 2.9e-10 M. Moreover, the EC50 (as a rule, the concentration that produces a half-maximal response) in the test on Tankyrases was found to be 1e-08 M.

`Cn1ccc2c(=O)[nH]c(CCCC(=O)N3CCC(c4nnc(-c5ccccc5)o4)CC3)nc21` [Compound C184, 7-Methyl-2-{4-oxo-4-[4-(5-phenyl-[1,3,4]oxadiazol-2-yl)-piperidin-1-yl]-butyl}-3,7-dihydro-pyrrolo[2,3-d]pyrimidin-4-one]: the IC50 against PARP-1 turned out to be 1900 nM; on TNKS1, 4.7 nM; on TNKS2 it was 2.5e-09 M. The EC50 in the test on Tankyrases was 4.7e-07 M.

As for `Cn1ccc2c(=O)[nH]c(CCCC(=O)N3CCC(C(=O)c4ccc(F)cc4)CC3)nc21` [Compound C186, 2-{4-[4-(4-Fluoro-benzoyl)-piperidin-1-yl]-4-oxo-butyl}-7-methyl-3,7-dihydro-pyrrolo[2,3-d]pyrimidin-4-one], the values for the IC50 against PARP-1, at TNKS1 and at TNKS2 were 1200 nM, 0.41 nM and 1.9e-09 M, respectively. The EC50 in the test on Tankyrases turned out to be 1.4e-08 M.

With `Cn1cc(C(=O)C2CCN(C(=O)CCCc3nc4c(ccn4C)c(=O)[nH]3)CC2)cn1` [Compound C190, 7-Methyl-2-{4-[4-(1-methyl-1H-pyrazole-4-carbonyl)-piperidin-1-yl]-4-oxo-butyl}-3,7-dihydro-pyrrolo[2,3-d]pyrimidin-4-one], the values for the IC50 against PARP-1, against TNKS1 and on TNKS2 were 870 nM, 0.71 nM and 3.2e-10 M, respectively. In addition, in the test on Tankyrases, the EC50 came out at 1.9e-07 M.

As to `COc1ccc(C(=O)C2CCN(C(=O)CCCc3nc4c(c(=O)[nH]3)COCC4)CC2)cc1F` [Compound C192, 2-{4-[4-(3-Fluoro-4-methoxy-benzoyl)-piperidin-1-yl]-4-oxo-butyl}-3,5,7,8-tetrahydro-pyrano[4,3-d]pyrimidin-4-one], the IC50 is 12000 nM at PARP-1, 5.6 nM on TNKS1 and 2.1e-09 M at TNKS2. Moreover, the EC50 in the test on Tankyrases worked out at 4.9e-08 M.

As to `COc1ccc(C(=O)C2CCN(C(=O)CCCc3nc4c(c(=O)[nH]3)COCC4)CC2)cn1` [Compound C193, 2-{4-[4-(6-Methoxy-pyridine-3-carbonyl)-piperidin-1-yl]-4-oxo-butyl}-3,5,7,8-tetrahydro-pyrano[4,3-d]pyrimidin-4-one], the figures for the IC50 against PARP-1, against TNKS1 and at TNKS2 were 8000 nM, 7.4 nM and 2.6e-09 M, respectively. Further, the EC50 in the test with Tankyrases turned out to be 1e-07 M.

As to `N#Cc1cc(C2CCN(C(=O)CCCc3nc4c(c(=O)[nH]3)COCC4)CC2)cnc1N` [Compound C194, 6-Amino-1′-[4-(4-oxo-3,5,7,8-tetrahydro-4H-pyrano[4,3-d]pyrimidin-2-yl)-butyryl]-1′,2′,3′,4′,5′,6′-hexahydro-[3,4′]bipyridinyl-5-carbonitrile], the values for the concentration for half-maximal inhibition (IC50) against PARP-1, at TNKS1 and on TNKS2 were 4900 nM, 15 nM and 4.5e-09 M, respectively. Moreover, the EC50 with Tankyrases amounted to 3.1e-06 M.

Take `Nc1ncc(C2CCN(C(=O)CCCc3nc4c(c(=O)[nH]3)COCC4)CC2)cc1-c1ncccn1` [Compound C195, 2-[4-(6-Amino-5-pyrimidin-2-yl-3′,4′,5′,6′-tetrahydro-2′H-[3,4′]bipyridinyl-1′-yl)-4-oxo-butyl]-3,5,7,8-tetrahydro-pyrano[4,3-d]pyrimidin-4-one]: the figures for the IC50 at PARP-1, on TNKS1 and on TNKS2 were 3300 nM, 2.1 nM and 6.8e-10 M, respectively. Moreover, the EC50 in the test with Tankyrases was 3.5e-08 M.

Consider `N#Cc1ccc(OC2CCN(C(=O)CCCc3nc4c(c(=O)[nH]3)COCC4)CC2)cc1` [Compound C197, 4-{1-[4-(4-Oxo-3,5,7,8-tetrahydro-4H-pyrano[4,3-d]pyrimidin-2-yl)-butyryl]-piperidin-4-yloxy}-benzonitrile], for which the results for the IC50 against PARP-1, at TNKS1 and on TNKS2 were 3200 nM, 560 nM and 2.4e-07 M, respectively. Also, the EC50 in the test on Tankyrases is 3.6e-06 M.

Turning to `O=C(c1ccc(F)cc1)C1CCN(C(=O)CCCc2nc3c(c(=O)[nH]2)COCC3)CC1` [Compound C198, 2-{4-[4-(4-Fluoro-benzoyl)-piperidin-1-yl]-4-oxo-butyl}-3,5,7,8-tetrahydro-pyrano[4,3-d]pyrimidin-4-one], the IC50 against PARP-1 was 5200 nM; at TNKS1 it was 12 nM; at TNKS2 it was 4e-09 M. Further, the EC50 in the test with Tankyrases worked out at 7.5e-08 M.

`Cn1cc(C(=O)C2CCN(C(=O)CCCc3nc4c(c(=O)[nH]3)COCC4)CC2)cn1` [Compound C202, 2-{4-[4-(1-Methyl-1H-pyrazole-4-carbonyl)-piperidin-1-yl]-4-oxo-butyl}-3,5,7,8-tetrahydro-pyrano[4,3-d]pyrimidin-4-one]: the figures for the IC50 at PARP-1, at TNKS1 and on TNKS2 were 18000 nM, 8.1 nM and 3.1e-09 M, respectively. The concentration giving a half-maximal response (EC50) in the test with Tankyrases was 2.2e-06 M.

`Cc1cc2c(=O)[nH]c(CCCC(=O)N3CCC(C(=O)c4cnn(C)c4)CC3)cn2n1` [Compound C209, 2-Methyl-6-{4-[4-(1-methyl-1H-pyrazole-4-carbonyl)-piperidin-1-yl]-4-oxo-butyl}-5H-pyrazolo[1,5-a]pyrazin-4-one]: the IC50 against PARP-1 was 8500 nM; on TNKS1 it was 0.76 nM; on TNKS2, 7.9e-10 M. Also, the EC50 with Tankyrases is 1e-08 M.

Consider `CC(C)n1cc(C(=O)C2CCN(C(=O)CCCc3cn4cccc4c(=O)[nH]3)CC2)cn1` [Compound C210, 3-{4-[4-(1-Isopropyl-1H-pyrazole-4-carbonyl)-piperidin-1-yl]-4-oxo-butyl}-2H-pyrrolo[1,2-a]pyrazin-1-one], for which the values for the IC50 at PARP-1, against TNKS1 and at TNKS2 were 7500 nM, 0.38 nM and 3.2e-10 M, respectively. For the same compound, the EC50 in the test on Tankyrases came to 3.6e-09 M.

Take `CCn1cc(C(=O)C2CCN(C(=O)CCCc3nc4c(cnn4C)c(=O)[nH]3)CC2)cn1` [Compound C213, 6-{4-[4-(1-Ethyl-1H-pyrazole-4-carbonyl)-piperidin-1-yl]-4-oxo-butyl}-1-methyl-1,5-dihydro-pyrazolo[3,4-d]pyrimidin-4-one]: the IC50 was 11000 nM at PARP-1, 1.2 nM on TNKS1 and 5.2e-10 M on TNKS2. The EC50 in the test on Tankyrases amounted to 8.6e-08 M.

As for `CCn1cc(C(=O)C2CCN(C(=O)CCCc3nn4cc(F)cc4c(=O)[nH]3)CC2)cn1` [Compound C215, 2-{4-[4-(1-Ethyl-1H-pyrazole-4-carbonyl)-piperidin-1-yl]-4-oxo-butyl}-6-fluoro-3H-pyrrolo[2,1-f][1,2,4]triazin-4-one], the IC50 against PARP-1 is 5000 nM; on TNKS1, 1.5 nM; on TNKS2, 1.4e-09 M. Moreover, the EC50 in the test with Tankyrases turned out to be 1.8e-08 M.

For the compound `CCn1cc(C(=O)C2CCN(C(=O)CCCc3nc4c(C)scc4c(=O)[nH]3)CC2)cn1` [Compound C216, 2-{4-[4-(1-Ethyl-1H-pyrazole-4-carbonyl)-piperidin-1-yl]-4-oxo-butyl}-7-methyl-3H-thieno[3,4-d]pyrimidin-4-one], the IC50 against PARP-1 was 1500 nM; against TNKS1 it was 2.5 nM; at TNKS2, 1.3e-09 M. The EC50 in the test with Tankyrases was 5.2e-08 M.

Values taken from US9809598B2 (Merck Patent GmbH, priority 2014, dated 2017).
